Data on six compounds can be found in patent EP0098615A1, “1-Oxadethiacephalosporin compound and antibacterial agent containing the same” (MEIJI SEIKA KAISHA LTD., priority 1982, dated 1984).

Values after ≈ are worked out from the molar mass of the structure shown. Where two headings read alike, the source gives them in different places.

Test [1] has as its system Staphylococcus aureus Smith. Kind of test: MIC by serial dilution method on agar plates. Format: cell-based. The conditions noted are these: read-out: Minimum inhibitory concentrations (MIC.).
For test [2], the system named is Staphylococcus aureus 209P JC-1. The test can be described thus: MIC by serial dilution method on agar plates. In kind it is cell-based. The conditions noted are these: read-out: Minimum inhibitory concentrations (MIC.).
Test [3] has as its system Escherichia coli NIHJ JC-2. Kind of test: MIC by serial dilution method on agar plates. Format: cell-based.
Test [4] relates to Klebsiella pneumoniae PCI 602. The test can be described thus: MIC by serial dilution method on agar plates. In kind it is cell-based.
For the next test, the system named is Proteus mirabilis GN 79. Kind of test: MIC by serial dilution method on agar plates. Format: cell-based.
Test [5] relates to Salmonella typhimurium LT-2. Kind of test: MIC by serial dilution method on agar plates. The following applies: Salmonella enterica, read-out: Minimum inhibitory concentrations (MIC.). Format: cell-based.
The next test concerns Proteus vulgaris GN 76. Kind of test: MIC by serial dilution method on agar plates. In kind it is cell-based.
A further test deals with Protues rettgeri GN 624. Kind of test: MIC by serial dilution method on agar plates. The conditions noted are these: read-out: Minimum inhibitory concentrations (MIC.). Format: cell-based.
Test [6] concerns Serratia marcescens No. 2. Kind of test: MIC by serial dilution method on agar plates. In kind it is cell-based.
In a further test the test system is Escherichia coli No. 29. Kind of test: Curative effect of oral administration in infected mice (survival). Format: in vivo. The following applies: three mice in each group, i.p. inoculum 3.25 x 10^5 CFU/mouse, 7 days observation. The text has this: Thus, some tests were made to evaluate the curative effects of the new compound of this invention in therapeutic treatment of bacterial infections when the new compound was orally given to mice (average body weight 20 g) which had been infected with Escherichia coli No. 29. In these tests for therapeutic treatment of the bacterial infection, mice (three mice in each group) were inoculated intraperitoneally with Escherichia coli No. 29 at an inoculum dose of 3.25 x 10^5 CFU/mouse and then immediately treated by oral administration of the test compound. For the subsequent 7 days, the mice were kept under observation and the number of surviving mice was counted.

Where [7] appears, read: Staphylococcus aureus Smith, serial dilution on agar plates.
Where [8] appears, read: Staphylococcus aureus 209P JC-1, serial dilution on agar plates.
Where [9] appears, read: NIHJJC2, Escherichia coli NIHJ JC-2, serial dilution on agar plates, read-out: Minimum inhibitory concentrations (MIC.).
Where [10] appears, read: PCI602, Klebsiella pneumoniae PCI 602, serial dilution on agar plates, read-out: Minimum inhibitory concentrations (MIC.).
The mark [11] stands for this setting: GN79, Proteus mirabilis GN 79, serial dilution on agar plates, read-out: Minimum inhibitory concentrations (MIC.).
The mark [12] stands for this setting: Salmonella typhimurium LT-2, serial dilution on agar plates.
Setting [13] is: GN76, Proteus vulgaris GN 76, serial dilution on agar plates, read-out: Minimum inhibitory concentrations (MIC.).
The mark [14] stands for this setting: Protues rettgeri GN 624, serial dilution on agar plates.
The mark [15] stands for this setting: Serratia marcescens No. 2, serial dilution on agar plates, read-out: Minimum inhibitory concentrations (MIC.).

For `CSC1=C(C(=O)O)N2C(=O)C(NC(=O)C(C(=O)O)c3cccs3)C2OC1` (centres unmarked) [Example 3(b), 7-[2-(2-thienyl)-2-carboxyacetamide]-1-oxa-1-dethia-3-methylthio-3-cephem-4-carboxylic acid], the MIC in test [1] (setting [7]) stood at 0.39 µg/mL (≈ 0.979 µM); in [2] (setting [8]), 0.2 µg/mL (≈ 0.502 µM); in [3] (setting [9]) it was 0.78 µg/mL (≈ 1.96 µM); in test [4] (setting [10]), 0.78 µg/mL (≈ 1.96 µM); with Proteus mirabilis GN 79 (setting [11]), 6.25 µg/mL (≈ 15.7 µM); in test [5] (setting [12]) it was 0.78 µg/mL (≈ 1.96 µM). Besides, the values for the MIC (with Proteus vulgaris GN 76 (setting [13]); in the test on Protues rettgeri GN 624 (setting [14]); in test [6] (setting [15])) were 50 µg/mL (≈ 125 µM), 3.13 µg/mL (≈ 7.86 µM) and 3.13 µg/mL (≈ 7.86 µM), respectively.
Take `CSC1=C(C(=O)O)N2C(=O)C(NC(=O)Cc3ccsc3)C2OC1` (centres unmarked) [Example 2(b), 7-(3-thienylacetamido)-1-oxa-1-dethia-3-methylthio-3-cephem-4-carboxylic acid]: the MIC came to 0.1 µg/mL (≈ 0.282 µM) in test [1] (setting [7]); 0.05 µg/mL (≈ 0.141 µM) in [2] (setting [8]); 6.25 µg/mL (≈ 17.6 µM) in [3] (setting [9]); 1.56 µg/mL (≈ 4.4 µM) in [4] (setting [10]); 25 µg/mL (≈ 70.5 µM) in the test on Proteus mirabilis GN 79 (setting [11]); 1.56 µg/mL (≈ 4.4 µM) in test [5] (setting [12]). Further, the MIC (with Proteus vulgaris GN 76 (setting [13]); in the test with Protues rettgeri GN 624 (setting [14]); in test [6] (setting [15])) was greater than 100 µg/mL each time.
As to `CO/N=C(\C(=O)NC1C(=O)N2C(C(=O)O)=C(SC)COC12)c1csc(N)n1` (centres unmarked) [Example 6(b), 7-[2-(2-amino-4-thiazolyl)-2-methoxy-iminoacetamido]-1-oxa-1-dethia-3-methyl-thio-3-cephem-4-carboxylic acid tri-fluoroacetate], the MIC in test [1] (Staphylococcus aureus) was found to be 3.13 µg/mL (≈ 7.57 µM); in [2] (Staphylococcus aureus, 209P), 1.56 µg/mL (≈ 3.77 µM); in test [3] (Escherichia coli, NIHJJC2, read-out: Minimum inhibitory concentrations (MIC.)) it was 0.78 µg/mL (≈ 1.89 µM); in test [4] (Klebsiella pneumoniae, PCI602, read-out: Minimum inhibitory concentrations (MIC.)), 0.1 µg/mL (≈ 0.242 µM); in the test with Proteus mirabilis GN 79 (Proteus mirabilis, GN79, read-out: Minimum inhibitory concentrations (MIC.)), 0.39 µg/mL (≈ 0.943 µM); in test [5] (TYPHIMURIUM), 0.05 µg/mL (≈ 0.121 µM). The MIC with Proteus vulgaris GN 76 (Proteus vulgaris, GN76, read-out: Minimum inhibitory concentrations (MIC.)) is greater than 100 µg/mL; in the test with Protues rettgeri GN 624, 3.13 µg/mL (≈ 7.57 µM); in test [6] (Serratia marcescens, NO.2, read-out: Minimum inhibitory concentrations (MIC.)), 0.78 µg/mL (≈ 1.89 µM). In addition, the “number of surviving mice” value in the test with Escherichia coli No. 29 (0.1 mg/mouse oral) came out at 1; in the test on Escherichia coli No. 29 (1 mg/mouse oral) it was 3; in the test with Escherichia coli No. 29 (5 mg/mouse oral) it was 3; in the test on Escherichia coli No. 29 (10 mg/mouse oral), 3.
`CSC1=C(C(=O)O)N2C(=O)C(NC(=O)Cc3cccs3)C2OC1` (centres unmarked) [Example 1(b), 7-(2-thienylacetamido)-1-oxa-1-dethia-3-methylthio-3-cephem-4-carboxylic acid]: the MIC amounted to 0.2 µg/mL (≈ 0.564 µM) in [1] (setting [7]); 0.2 µg/mL (≈ 0.564 µM) in test [2] (setting [8]); 6.25 µg/mL (≈ 17.6 µM) in test [3] (setting [9]); 1.56 µg/mL (≈ 4.4 µM) in test [4] (setting [10]); 25 µg/mL (≈ 70.5 µM) in the test with Proteus mirabilis GN 79 (setting [11]); 1.56 µg/mL (≈ 4.4 µM) in test [5] (setting [12]). Moreover, the MIC (in the test on Proteus vulgaris GN 76 (setting [13]); in the test on Protues rettgeri GN 624 (setting [14]); in [6] (setting [15])) was greater than 100 µg/mL throughout.
As for `COC1=C(C(=O)O)N2C(=O)[C@@H](NC(=O)[C@H](N)C3=CCC=CC3)[C@H]2SC1` [Cefroxadine, reference compound], the MIC in test [1] (setting [7]) is 1.56 µg/mL (≈ 4.27 µM); in test [2] (setting [8]), 1.56 µg/mL (≈ 4.27 µM); in [3] (setting [9]), 3.13 µg/mL (≈ 8.57 µM); in [4] (setting [10]) it was 3.13 µg/mL (≈ 8.57 µM); in the test on Proteus mirabilis GN 79 (setting [11]), 50 µg/mL (≈ 137 µM); in test [5] (setting [12]), 6.25 µg/mL (≈ 17.1 µM). The MIC was greater than 100 µg/mL in the test on Proteus vulgaris GN 76 (setting [13]), greater than 100 µg/mL with Protues rettgeri GN 624 (setting [14]) and 100 µg/mL (≈ 274 µM) in [6] (setting [15]). In addition, the “number of surviving mice” value in the test on Escherichia coli No. 29 (0.1 mg/mouse oral) amounted to 0; with Escherichia coli No. 29 (1 mg/mouse oral), 0; with Escherichia coli No. 29 (5 mg/mouse oral) it was 3; in the test on Escherichia coli No. 29 (10 mg/mouse oral), 3.
For the compound `CSC1=C(C(=O)O)N2C(=O)C(NC(=O)C(C(=O)O)c3ccsc3)C2OC1` (centres unmarked) [Example 4(b), 7-[2-(3-thienyl)-2-carboxyacetamido]-1-oxa-1-dethia-3-methylthio-3-cephem-4-carboxylic acid], the MIC in [1] (setting [7]) was found to be 3.13 µg/mL (≈ 7.86 µM); in test [2] (setting [8]), 1.56 µg/mL (≈ 3.92 µM); in test [3] (setting [9]), 0.78 µg/mL (≈ 1.96 µM); in [4] (setting [10]), 0.39 µg/mL (≈ 0.979 µM); in the test with Proteus mirabilis GN 79 (setting [11]), 1.56 µg/mL (≈ 3.92 µM); in [5] (setting [12]), 0.2 µg/mL (≈ 0.502 µM). For the same compound, the MIC worked out at 50 µg/mL (≈ 125 µM) in the test on Proteus vulgaris GN 76 (setting [13]), 1.56 µg/mL (≈ 3.92 µM) in the test on Protues rettgeri GN 624 (setting [14]) and 0.39 µg/mL (≈ 0.979 µM) in [6] (setting [15]).
